This is an account of results in publication PMC6800282, “Make the right measurement: Discovery of an allosteric inhibition site for p300-HAT” (Structural Dynamics, 2019).

In one assay the target is T1, WT P300 HAT domain (Homo sapiens, UniProt Q09472).
T1 construct: WT HAT construct = K1287-F1666 including the L1520-L1580 regulatory loop, expressed as HisTev fusion; HisTev (polyhistidine tag with TEV site); made in house
T1 sequence (Q09472 1287-1666): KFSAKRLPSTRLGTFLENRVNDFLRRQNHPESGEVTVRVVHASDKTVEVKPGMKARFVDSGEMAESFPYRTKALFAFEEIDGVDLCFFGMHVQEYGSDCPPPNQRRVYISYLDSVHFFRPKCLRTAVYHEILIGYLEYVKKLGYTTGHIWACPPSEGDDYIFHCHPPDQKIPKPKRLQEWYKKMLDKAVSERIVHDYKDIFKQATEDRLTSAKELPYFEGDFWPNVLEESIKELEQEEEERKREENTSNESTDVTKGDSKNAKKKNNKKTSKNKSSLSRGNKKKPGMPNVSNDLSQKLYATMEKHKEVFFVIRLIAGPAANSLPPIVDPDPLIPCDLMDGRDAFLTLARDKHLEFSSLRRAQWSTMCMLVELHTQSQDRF
The experiment in a line: p300 HAT domain SPA catalytic assay with peptide substrate. The conditions noted are these: for Mechanism of inhibition (excess substrate MOI tests): 10× AcCoA, 30× histone peptide; for pIC50: HAT domain construct K1287-F1666. Format: biochemical. How it is done: To identify starting points for modulating p300/CBP activity, high throughput screening was carried out using the WT P300 HAT domain (WT HAT construct = K1287-F1666 including the L1520-L1580 regulatory loop, expressed as HisTev fusion) and a peptide substrate in a catalytic assay. After extensive triage, several validated inhibitor types were identified, one of which will be the focus of this report. A more detailed description of the HTS efforts will be the subject of a forthcoming publication by Huhn et al. At this stage of the project, only the HAT domain of p300 was used, as it was not yet feasible to obtain sufficient quantities of full-length P300 (FL-P300) to conduct a high-throughput screen of >150,000 compounds.

Another assay deals with CBP HAT (Homo sapiens, UniProt Q92793). The assay is described as follows: CBP HAT SPA. Format: biochemical.
The next assay deals with T2, P300-HAT domain (Homo sapiens, UniProt Q09472).
T2 sequence (Q09472 1287-1666): T1 sequence (Q09472 1287-1666)
The assay is described as follows: Dynamic scanning fluorimetry (DSF). Format: binding. The following applies: for ΔTm at 250 µM: compound at 250 μM. The text has this:
Additionally, given their small size, it seemed unlikely that CPI-076 and CPI-090 blocked both sites.

The target of assay [1] is T3, full-length human p300 (FL-P300) (Homo sapiens, UniProt Q09472).
T3 construct: polyhistidine tag with TEV site (HisTev) (N); StrepII (C); made in house; host or cells: Sf9 insect cells (baculovirus)
The experiment in a line: Full-length p300 SPA. Format: biochemical. The conditions noted are these: for Inhibition of FL enzyme: full-length P300. The text has this:
The sequence of 2414-residue full-length human p300 (FL-P300) was codon-optimized for insect cell expression and synthesized in three parts (Genscript). After assembly of the full-length sequence, the complete ORF was subcloned into a modified pTriEx vector (Novagen/EMD Millipore) to express FL-P300 with both an N-terminal, cleavable polyhistidine tag and C-terminal StrepII tag (HisTev-p300-Strep). Baculovirus was produced by co-transfection of the plasmid into Sf9 cells with linearized baculovirus BestBac2.0 (Expression Systems). The protein was expressed in Sf9 cells and purified with Talon Metal Affinity Resin (Clontech/Takara). The purified protein was concentrated to 1.6 mg/ml in storage buffer (50 mM Tris pH 8, 100 mM NaCl, 10% glycerol, and 0.5 mM TCEP).
At this point in the program, quantities of highly purified FL P300 were more readily available (preparation described above), and so HAT inhibitors were retested against FL P300 under optimized conditions. A large shift relative to the P300-HAT catalytic domain assay was observed.

Assay [2] has as its system H3K18 acetylation in HCT116 cells. The experiment in a line: Inhibition of H3K18 acetylation in HCT116 cells. It counts as cell-based. The following applies: Homo sapiens, HCT-116, read-out: H3K18Ac EC50.
Setting [3] is: full-length enzyme, optimized conditions.

pEC50, pIC50: −log10 of the molar value. “And” between values parts separate entries of the source, which are not always exact repeats. Equal entries are not always repeated. Bounds are passed on as bounds.

In general, pIC50 refers to the negative decadic logarithm of the IC50, by convention in mol/L. A lower pIC50 goes with a large IC50. For orientation: ΔTm means the change in melting temperature against a reference sample. One may read the pEC50 as −log10 of the EC50, conventionally taken in molar units.

T3 sequence (Q09472 whole entry): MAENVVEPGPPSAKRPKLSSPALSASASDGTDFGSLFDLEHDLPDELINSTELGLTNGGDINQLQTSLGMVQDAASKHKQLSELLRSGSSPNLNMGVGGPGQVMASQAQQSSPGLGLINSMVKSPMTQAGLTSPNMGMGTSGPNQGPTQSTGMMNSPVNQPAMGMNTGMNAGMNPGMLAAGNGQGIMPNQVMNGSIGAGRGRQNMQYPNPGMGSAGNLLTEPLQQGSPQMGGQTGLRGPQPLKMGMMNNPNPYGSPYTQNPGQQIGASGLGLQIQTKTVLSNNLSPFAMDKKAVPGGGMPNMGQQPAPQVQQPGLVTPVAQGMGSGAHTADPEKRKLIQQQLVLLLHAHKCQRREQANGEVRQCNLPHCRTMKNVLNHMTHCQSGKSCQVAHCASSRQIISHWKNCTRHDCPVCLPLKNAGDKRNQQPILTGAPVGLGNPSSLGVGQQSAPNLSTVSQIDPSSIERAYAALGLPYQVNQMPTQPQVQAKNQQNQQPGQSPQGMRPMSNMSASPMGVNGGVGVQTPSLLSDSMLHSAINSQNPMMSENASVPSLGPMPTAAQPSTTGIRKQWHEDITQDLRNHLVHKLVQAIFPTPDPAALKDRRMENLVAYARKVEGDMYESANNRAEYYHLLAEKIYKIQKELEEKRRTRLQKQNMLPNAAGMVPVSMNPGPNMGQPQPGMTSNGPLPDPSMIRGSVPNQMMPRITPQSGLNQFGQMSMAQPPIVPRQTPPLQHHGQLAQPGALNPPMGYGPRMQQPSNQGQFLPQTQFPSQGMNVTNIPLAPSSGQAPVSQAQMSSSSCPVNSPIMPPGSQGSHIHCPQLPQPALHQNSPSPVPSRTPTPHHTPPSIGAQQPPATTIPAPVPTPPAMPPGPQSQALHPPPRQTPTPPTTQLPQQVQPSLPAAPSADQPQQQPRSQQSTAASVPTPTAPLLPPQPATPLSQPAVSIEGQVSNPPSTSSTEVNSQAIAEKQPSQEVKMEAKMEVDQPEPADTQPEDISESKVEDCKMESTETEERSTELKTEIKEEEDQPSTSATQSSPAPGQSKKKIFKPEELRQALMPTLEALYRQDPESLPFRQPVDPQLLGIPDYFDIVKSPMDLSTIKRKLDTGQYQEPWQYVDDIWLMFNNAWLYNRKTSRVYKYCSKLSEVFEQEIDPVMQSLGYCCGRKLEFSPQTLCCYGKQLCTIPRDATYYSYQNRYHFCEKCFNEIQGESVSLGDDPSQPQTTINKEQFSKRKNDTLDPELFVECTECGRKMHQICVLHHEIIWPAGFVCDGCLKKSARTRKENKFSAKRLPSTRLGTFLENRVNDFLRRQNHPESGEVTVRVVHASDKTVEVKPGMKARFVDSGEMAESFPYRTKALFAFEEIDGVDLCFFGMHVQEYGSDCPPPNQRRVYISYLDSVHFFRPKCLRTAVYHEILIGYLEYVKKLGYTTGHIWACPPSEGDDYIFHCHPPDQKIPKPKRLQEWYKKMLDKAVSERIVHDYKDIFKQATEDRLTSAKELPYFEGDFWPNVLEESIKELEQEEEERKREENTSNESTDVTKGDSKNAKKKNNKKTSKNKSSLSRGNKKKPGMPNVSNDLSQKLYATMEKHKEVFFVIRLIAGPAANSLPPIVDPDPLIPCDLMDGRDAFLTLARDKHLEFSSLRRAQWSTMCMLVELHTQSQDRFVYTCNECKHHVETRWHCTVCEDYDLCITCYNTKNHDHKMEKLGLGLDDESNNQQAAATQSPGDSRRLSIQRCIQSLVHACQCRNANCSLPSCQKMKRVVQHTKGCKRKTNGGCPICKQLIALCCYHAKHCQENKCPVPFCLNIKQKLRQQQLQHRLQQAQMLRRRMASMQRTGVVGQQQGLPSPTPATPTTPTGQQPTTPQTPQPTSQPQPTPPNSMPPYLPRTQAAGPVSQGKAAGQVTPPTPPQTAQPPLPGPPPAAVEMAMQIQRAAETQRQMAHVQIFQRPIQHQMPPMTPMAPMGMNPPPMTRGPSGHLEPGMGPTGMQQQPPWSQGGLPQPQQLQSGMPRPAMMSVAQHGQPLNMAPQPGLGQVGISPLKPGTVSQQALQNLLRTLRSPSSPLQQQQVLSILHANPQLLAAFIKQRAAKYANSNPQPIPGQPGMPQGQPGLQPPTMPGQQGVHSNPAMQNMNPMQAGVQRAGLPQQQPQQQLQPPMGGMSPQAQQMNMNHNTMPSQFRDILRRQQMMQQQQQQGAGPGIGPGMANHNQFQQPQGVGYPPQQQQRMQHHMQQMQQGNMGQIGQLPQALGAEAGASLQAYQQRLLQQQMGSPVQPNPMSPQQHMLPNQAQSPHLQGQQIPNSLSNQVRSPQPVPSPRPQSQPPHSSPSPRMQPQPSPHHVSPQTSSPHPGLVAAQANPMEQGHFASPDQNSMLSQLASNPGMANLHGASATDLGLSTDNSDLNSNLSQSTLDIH
CBP HAT, sequence (Q92793 1323-1700 limits assumed): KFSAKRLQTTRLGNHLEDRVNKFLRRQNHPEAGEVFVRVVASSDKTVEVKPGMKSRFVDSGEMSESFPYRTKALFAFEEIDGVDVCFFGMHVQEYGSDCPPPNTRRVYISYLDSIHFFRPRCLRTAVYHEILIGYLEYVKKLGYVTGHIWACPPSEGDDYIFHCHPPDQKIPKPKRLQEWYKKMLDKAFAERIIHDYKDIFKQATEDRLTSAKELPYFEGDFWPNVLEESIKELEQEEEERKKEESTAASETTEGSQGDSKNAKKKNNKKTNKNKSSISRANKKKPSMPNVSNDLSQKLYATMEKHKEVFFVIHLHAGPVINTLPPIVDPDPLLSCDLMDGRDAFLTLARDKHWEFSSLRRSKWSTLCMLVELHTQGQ

With `CC(=O)Nc1cccs1` [CPI-076], on WT P300 HAT domain, the “Mechanism of inhibition (excess substrate MOI tests)” value is “AcCoA- and peptide-modulating compounds but not wholly competitive”; the pIC50 is 4.70. Also, at CBP HAT, the pIC50 is 4.41. The ΔTm at 250 µM on P300-HAT domain worked out at 1.3 °C. In addition, the “Inhibition of FL enzyme” value in assay [1] is “no measurable FL activity”. For the same molecule, the “FL p300 SPA IC50” value in assay [1] (setting [3]) is recorded as “Undetectable”.
With `Cc1[nH]c2ccccc2c1-c1ncc(C(F)(F)F)cc1Cl` [CPI-090], at WT P300 HAT domain, the “Mechanism of inhibition (excess substrate MOI tests)” value was “AcCoA- and peptide-modulating compounds but not wholly competitive”; the pIC50 is 6.50 and 6.51. On CBP HAT, the pIC50 was 6.13. Also, at P300-HAT domain, the “DSF stabilization” value was “strong stabilization” and the ΔTm at 250 µM worked out at 5.8 °C. In addition, in assay [2], the pEC50 is under 4.52. For the same molecule, the “Inhibition of FL enzyme” value in assay [1] is “does not inhibit the FL enzyme”. Also, the pIC50 in assay [1] (setting [3]) was under 3.80.
